Measurements published in PMC11784839, “Monoaminergic neurotransmitters are bimodal effectors of tau aggregation” (Science Advances, 2025).

Biological target: tau (Homo sapiens, UniProt P10636)
Assay: MCE Phenols Library screening, tau biosensor cell seeding assay (AvZ)
Format: cell-based
Settings: for Z repl 1 / Z Repl 2: Z score; for Z repl 1 / raw data 1: replicate 1; for Z Repl 2 / raw data 2: replicate 2; for AvZ (average z score of seeding, SDs from the mean level of seeding): 10 μM phenol in cell cultures, AD brain homogenate preincubated 16 hours, two biological replicates, positive = catalyzes seeding, negative = inhibits
[1] = average Z score of the two replicates, MCE Phenols Library screen
[2] = average puncta of the two replicates
[3] = average Z score of two replicates, Phenols Library screen
[4] = average Z score of the two replicates, tau seeding
[5] = average Z score of the two replicates, tau biosensor seeding, MCE Phenols Library screen

Sequence of tau (P10636 623-695 limits assumed): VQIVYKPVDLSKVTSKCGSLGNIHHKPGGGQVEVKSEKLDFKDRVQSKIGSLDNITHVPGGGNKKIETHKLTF

For `O=c1cc(-c2ccc(O)c(O)c2)oc2cc(O[C@@H]3O[C@H](CO)[C@@H](O)[C@H](O)[C@H]3O)c(O)c(O)c12` [6-Hydroxyluteolin 7-glucoside], the “Z repl 1” value was -0.171, the “Z Repl 2” value was -0.979 and the “av Z” value [1] was -0.575. For the same compound, the av puncta [2] was 13301.5, the “raw data 1” value (puncta) was 24297.8 and the “raw data 2” value (puncta) was 2305.25.
For `COc1cc2c(CCNC(C)=O)c[nH]c2cc1O` [6-Hydroxymelatonin], the “AvZ (average z score of seeding, SDs from the mean level of seeding)” value (“AvZ” below) was -0.003, the “AvZ” value (listed as 6-Hydroxy melatonin) was −0.003 and the “Z repl 1” value was 0.345. The “Z Repl 2” value was -0.35, the av puncta (average of raw data 1 and 2) was 19759.2 and the “raw data 1” value (puncta) was 30495.8. For the same compound, the “raw data 2” value (puncta) was 9022.73.
For `COc1ccc(-c2cc(=O)c3c(O)cc(OC)cc3o2)cc1` [7,4'-Di-O-methylapigenin], the “Z repl 1” value was 0.072, the “Z Repl 2” value was -0.073 and the “av Z” value [3] was -0.001. The av puncta (average of raw data 1 and 2) was 19598.9, the “raw data 1” value (puncta) was 27207.6 and the “raw data 2” value (puncta) was 11990.2.
In the case of `O=c1cc(-c2ccc(O)cc2)oc2cc(O)ccc12` [7,4'-Dihydroxyflavone], the “Z repl 1” value is reported as 0.712, the “Z Repl 2” value is reported as -0.135 and the “av Z” value [4] is reported as 0.289. For the same compound, the av puncta (average of raw data 1 and 2) was 23112.9, the “raw data 1” value (puncta) was 34900.1 and the “raw data 2” value (puncta) was 11325.8.
For `O=c1cc(-c2ccccc2)oc2c(O)c(O)ccc12` [7,8-Dihydroxyflavone], the “Z repl 1” value was 1.412, the “Z Repl 2” value was 0.928 and the “av Z” value [5] was 1.17. The av puncta (average of raw data 1 and 2) was 32989.2, the “raw data 1” value (puncta) was 43302.3 and the “raw data 2” value (puncta) was 22676.
`O=c1ccoc2cc(O)ccc12` [7-Hydroxy-4H-chromen-4-one] was tested, and the “Z repl 1” value was -0.015, the “Z Repl 2” value was -0.619 and the “av Z” value [1] was -0.317. For the same compound, the av puncta [2] was 16165.1, the “raw data 1” value (raw puncta) was 26174.7 and the “raw data 2” value (raw puncta) was 6155.6.
With `CC(C)=CCc1c(O)c(CC=C(C)C)c2oc3c(O)cccc3c(=O)c2c1O` [8-Deoxygartanin] the “Z repl 1” value was -0.784, the “Z Repl 2” value was -0.654 and the “av Z” value [1] was -0.719. The av puncta [2] was 11358, the “raw data 1” value (puncta) was 16933.5 and the “raw data 2” value (puncta) was 5782.42.
In the case of `CCCCCCC[C@H](O)CC(=O)CCc1ccc(O)c(OC)c1` [8-Gingerol], the “AvZ” value is reported as -0.236, the “Z repl 1” value is reported as 0.065 and the “Z Repl 2” value is reported as -0.537. For the same compound, the av puncta [2] was 17076, the “raw data 1” value (raw puncta) was 27124.2 and the “raw data 2” value (raw puncta) was 7027.77.
`COc1c2ccoc2c(O)c2oc(=O)ccc12` [8-Hydroxybergapten] was tested, and the “Z repl 1” value was -0.103, the “Z Repl 2” value was 0.252 and the “av Z” value [3] was 0.074. For the same compound, the av puncta (average of raw data 1 and 2) was 20281.2, the “raw data 1” value (puncta) was 25106.7 and the “raw data 2” value (puncta) was 15455.8.
With `CCCCCCCCC[C@H](O)CC(=O)CCc1ccc(O)c(OC)c1` [10-Gingerol] the “AvZ” value was -0.619, the “Z repl 1” value was -0.921 and the “Z Repl 2” value was -0.318. The av puncta [2] was 12333.4, the “raw data 1” value (puncta) was 15293.5 and the “raw data 2” value (puncta) was 9373.24.
With `CCCCCCCCC/C=C/C(=O)CCc1ccc(O)c(OC)c1` [10-Shogaol] the “AvZ” value was -0.507.
With `C=C(C)[C@H](CC=C(C)C)Cc1c(O)cc(OC)c2c1O[C@H](c1ccc(O)cc1OC)CC2=O` [(2S)-2'-Methoxykurarinone] the “Z repl 1” value was 0.362, the “Z Repl 2” value was 0.799 and the “av Z” value [4] was 0.581. For the same compound, the av puncta (average of raw data 1 and 2) was 25999.8, the “raw data 1” value (puncta) was 30700.9 and the “raw data 2” value (puncta) was 21298.7.
For `CC(C)=CCc1c(O)cc2c(c1O)C(=O)C[C@@H](c1ccc(O)cc1)O2` [(2S)-6-Prenylnaringenin], the “Z repl 1” value was 0.006, the “Z Repl 2” value was 0.268 and the “av Z” value [4] was 0.137. For the same compound, the av puncta (average of raw data 1 and 2) was 21024, the “raw data 1” value (puncta) was 26415.8 and the “raw data 2” value (puncta) was 15632.3.
`Oc1cc(O)c2c(c1)O[C@H](c1cc(O)c(O)c(O)c1)[C@@H](O)C2` [(+)-Gallocatechin] was tested, and the “Z repl 1” value was -0.679, the “Z Repl 2” value was -1.082 and the “av Z” value [1] was -0.881. The av puncta (average of raw data 1 and 2) was 9700.21, the “raw data 1” value (puncta) was 18193.2 and the “raw data 2” value (puncta) was 1207.17.
With `COc1cc(C[C@@H](CO)[C@H](CO)Cc2ccc(O)c(OC)c2)ccc1O` [(+)-Secoisolariciresinol] the “Z repl 1” value was 0.313, the “Z Repl 2” value was 1.018 and the “av Z” value [4] was 0.666. The av puncta (average of raw data 1 and 2) was 26875.3, the “raw data 1” value (puncta) was 30111.3 and the “raw data 2” value (puncta) was 23639.2.
With `Oc1ccc([C@H]2COc3cc(O)ccc3C2)cc1` [(-)-(S)-Equol] the “Z repl 1” value was 0.447, the “Z Repl 2” value was -0.597 and the “av Z” value [3] was -0.075. For the same compound, the av puncta (average of raw data 1 and 2) was 19047.3, the “raw data 1” value (puncta) was 31709.7 and the “raw data 2” value (puncta) was 6384.95.
For `O=C(O[C@@H]1Cc2c(O)cc(O)cc2O[C@H]1c1ccc(O)c(O)c1)c1cc(O)c(O)c(O)c1` [(-)-Catechin gallate], the “Z repl 1” value was -0.615, the “Z Repl 2” value was -1.07 and the “av Z” value [1] was -0.843. For the same compound, the av puncta (average of raw data 1 and 2) was 10148.5, the “raw data 1” value (puncta) was 18961.3 and the “raw data 2” value (puncta) was 1335.66.
With `Oc1ccc([C@H]2Oc3cc(O)cc(O)c3C[C@H]2O)cc1` [(-)-Epiafzelechin] the “Z repl 1” value was -0.198, the “Z Repl 2” value was 0.182 and the “av Z” value [3] was -0.008. The av puncta (average of raw data 1 and 2) was 19340.4, the “raw data 1” value (puncta) was 23970.4 and the “raw data 2” value (puncta) was 14710.3.
In the case of `O=C(O[C@@H]1Cc2c(O)cc(O)cc2O[C@@H]1c1ccc(O)c(O)c1)c1cc(O)c(O)c(O)c1` [(-)-Epicatechin gallate], the “Z repl 1” value is reported as -1.161, the “Z Repl 2” value is reported as -0.434 and the “av Z” value [1] is reported as -0.797. The av puncta (average of raw data 1 and 2) was 10272.2, the “raw data 1” value (puncta) was 12408.5 and the “raw data 2” value (puncta) was 8135.9.
With `O=C(O[C@@H]1Cc2c(O)cc(O)cc2O[C@@H]1c1cc(O)c(O)c(O)c1)c1cc(O)c(O)c(O)c1` [(-)-Epigallocatechin Gallate] the “Z repl 1” value was -2.044, the “av Z” value [1] was -1.608 and the av puncta (average of raw data 1 and 2) was 1025.27. The “raw data 1” value (puncta) was 1812.01 and the “raw data 2” value (puncta) was 238.519.
In the case of `Oc1cc(O)c2c(c1)O[C@H](c1cc(O)c(O)c(O)c1)[C@H](O)C2` [(-)-Epigallocatechin], the “Z repl 1” value is reported as -0.424, the “Z Repl 2” value is reported as -0.047 and the “av Z” value [1] is reported as -0.236. For the same compound, the av puncta [2] was 16761.1, the “raw data 1” value (raw puncta) was 21261.4 and the “raw data 2” value (raw puncta) was 12260.9.
`O=C(O[C@@H]1Cc2c(O)cc(O)cc2O[C@H]1c1cc(O)c(O)c(O)c1)c1cc(O)c(O)c(O)c1` [(-)-Gallocatechin gallate] was tested, and the “Z Repl 2” value was -1.187, the av puncta (average of raw data 1 and 2) was 257.55 and the “raw data 1” value (puncta) was 427.718. For the same compound, the “raw data 2” value (puncta) was 87.382.
In the case of `Oc1cc(O)c2c(c1)O[C@@H](c1cc(O)c(O)c(O)c1)[C@H](O)C2` [(-)-Gallocatechin], the “Z repl 1” value is reported as -1.316, the “Z Repl 2” value is reported as -0.749 and the “av Z” value [1] is reported as -1.032. For the same compound, the av puncta (average of raw data 1 and 2) was 7661.42, the “raw data 1” value (puncta) was 10555.6 and the “raw data 2” value (puncta) was 4767.22.
For `Oc1ccc2c(c1)OC[C@H]1c3cc4c(cc3O[C@@H]21)OCO4` [(-?)?-Maackiain], the “Z repl 1” value was 0.975, the “Z Repl 2” value was 0.791 and the “av Z” value [5] was 0.883. For the same compound, the av puncta (average of raw data 1 and 2) was 29633.2, the “raw data 1” value (puncta) was 38055.6 and the “raw data 2” value (puncta) was 21210.9.
In the case of `COc1cc(/C=C/C(=O)OCC2OC(OC3(CO)OC(CO)C(O)C3OC(=O)/C=C/c3cc(OC)c(O)c(OC)c3)C(O)C(O)C2O)cc(OC)c1O` (centres unmarked) [(E)-3',6-Disinapoylsucrose], the “Z repl 1” value is reported as 0.224, the “Z Repl 2” value is reported as -0.662 and the “av Z” value [1] is reported as -0.219. For the same compound, the av puncta [2] was 17367.3, the “raw data 1” value (raw puncta) was 29041 and the “raw data 2” value (raw puncta) was 5693.57.
With `COC(=O)/C=C/c1ccc(O)cc1` [(E)-Methyl 4-coumarate] the “AvZ” value was 0.064, the “Z repl 1” value was 0.336 and the “Z Repl 2” value was -0.209. For the same compound, the av puncta (average of raw data 1 and 2) was 20459.1, the “raw data 1” value (puncta) was 30381.4 and the “raw data 2” value (puncta) was 10536.7.
